This is an account of results in ChEMBL document CHEMBL1133821, “Synthesis and antiinflammatory, analgesic activity of 3,3'-(1,2-ethanediyl)-bis[2-aryl-4-thiazolidinone] chiral compounds. Part 10” (Bioorg Med Chem Lett, 2001).

The subject of data set [1] is Rattus norvegicus. The data set can be described thus: Animals with Hyperemia in Carrageenan-induced paw edema test at a dose of 5 mg/kg perorally in rats. Format: functional. The note with it: route oral. For orientation: In the carrageenan paw model, swelling and tenderness develop within hours.
For data set [2], the system named is Rattus norvegicus. The data set can be described thus: Animals with Ulcers in Carrageenan-induced paw edema test at a dose of 5 mg/kg perorally in rats. Type of data set: functional. The note with it: route oral.
Data set [3] has as its system Rattus norvegicus. The data set can be described thus: Percent Edema variation in Carrageenan-induced paw edema test at a dose of 5 mg/kg perorally in rats after 120 min. Format: functional. The settings on record: route oral.
Data set [4] concerns Rattus norvegicus. The data set can be described thus: Percent Edema variation in Carrageenan-induced paw edema test at a dose of 5 mg/kg perorally in rats after 180 min (p<0.01). The settings on record: route oral. Type of data set: functional.
For data set [5], the system named is Rattus norvegicus. The data set can be described thus: Percent Edema variation in Carrageenan-induced paw edema test at a dose of 5 mg/kg perorally in rats after 60 min. The note with it: route oral. Type of data set: functional.
Data set [6] deals with Rattus norvegicus. The data set can be described thus: Reaction time in Hot plate test at a dose of 5 mg/kg perorally in rats after 120 min (p<0.01). Type of data set: functional. The note with it: route oral.
Data set [7] deals with Rattus norvegicus. The data set can be described thus: Reaction time in Hot plate test at a dose of 5 mg/kg perorally in rats after 180 min (p<0.01). Type of data set: functional. The note with it: route oral.
Data set [8] deals with Rattus norvegicus. The data set can be described thus: Reaction time in Hot plate test at a dose of 5 mg/kg perorally in rats after 60 min (p<0.01). Format: functional. The settings on record: route oral. For orientation: In hot-plate and tail-flick tests a longer latency is read as antinociception.
Data set [9] concerns Rattus norvegicus. The data set can be described thus: Analgesic activity was determined using acetic acid writing test at a dose of 5 mg/kg perorally in rats. (p<0.01). Format: functional. The note with it: route oral.
The subject of data set [10] is Rattus norvegicus. The data set can be described thus: Number of writhings in Acetic acid Writhing test at a dose of 5 mg/kg perorally in rats. Format: functional. The note with it: route oral. A general note: Writhing tests count abdominal constrictions after an irritant is injected.
Data set [11] is described as follows: Peroral dose causing 50% death of the mice population. The settings on record: mouse, in vivo, po. Type of data set: ADME, organism-based.
Data set [12] concerns Rattus norvegicus. The data set can be described thus: Animals with Hyperemia in Carrageenan-induced paw edema test at a dose of 100 mg/kg perorally in rats. Format: functional. The settings on record: route oral.
For data set [13], the system named is Rattus norvegicus. The data set can be described thus: Animals with Ulcers in Carrageenan-induced paw edema test at a dose of 100 mg/kg perorally in rats. Type of data set: functional. The note with it: route oral.
Data set [14] has as its system Rattus norvegicus. The data set can be described thus: Percent Edema variation in Carrageenan-induced paw edema test at a dose of 100 mg/kg perorally in rats after 120 min. Format: functional. The settings on record: route oral.
The test system of data set [15] is Rattus norvegicus. The data set can be described thus: Percent Edema variation in Carrageenan-induced paw edema test at a dose of 100 mg/kg perorally in rats after 180 min. Format: functional. The settings on record: route oral.
Data set [16] concerns Rattus norvegicus. The data set can be described thus: Percent Edema variation in Carrageenan-induced paw edema test at a dose of 100 mg/kg perorally in rats after 60 min (p<0.001). The settings on record: route oral. Format: functional.
In data set [17] the test system is Rattus norvegicus. The data set can be described thus: Percent Edema variation in Carrageenan-induced paw edema test at a dose of 50 mg/kg perorally in rats after 120 min. Type of data set: functional. The note with it: route oral.
For data set [18], the system named is Rattus norvegicus. The data set can be described thus: Percent Edema variation in Carrageenan-induced paw edema test at a dose of 50 mg/kg perorally in rats after 180 min. Type of data set: functional. The settings on record: route oral.
Data set [19] concerns Rattus norvegicus. The data set can be described thus: Percent Edema variation in Carrageenan-induced paw edema test at a dose of 50 mg/kg perorally in rats after 60 min (p<0.01). Type of data set: functional. The note with it: route oral.
The test system of data set [20] is Rattus norvegicus. The data set can be described thus: Reaction time in Hot plate test at a dose of 100 mg/kg perorally in rats after 180 min. The note with it: route oral. Type of data set: functional.
Data set [21] concerns Rattus norvegicus. The data set can be described thus: Reaction time in Hot plate test at a dose of 100 mg/kg perorally in rats after 60 min. Format: functional. The note with it: route oral.
The test system of data set [22] is Rattus norvegicus. The data set can be described thus: Analgesic activity was determined using acetic acid writing test at a dose of 100 mg/kg perorally in rats. Format: functional. The settings on record: route oral.
Data set [23] relates to Rattus norvegicus. The data set can be described thus: Reaction time in Hot plate test at a dose of 100 mg/kg perorally in rats after 120 min. Format: functional. The note with it: route oral.
Data set [24] has as its system Rattus norvegicus. The data set can be described thus: Number of writhings in Acetic acid Writhing test at a dose of 100 mg/kg perorally in rats. Type of data set: functional. The note with it: route oral.
Data set [25] in a line: Minimum concentration which causes 50% of the Artemia salina larvae to lose mobility. Format: ADME, organism-based. The note with it: in vivo.
The test system of data set [26] is Rattus norvegicus. The data set can be described thus: Animals with Hyperemia in Carrageenan-induced paw edema test at a dose of 50 mg/kg perorally in rats. Type of data set: functional. The note with it: route oral.
Data set [27] deals with Rattus norvegicus. The data set can be described thus: Animals with Ulcers in Carrageenan-induced paw edema test at a dose of 50 mg/kg perorally in rats. Type of data set: functional. The settings on record: route oral.
The test system of data set [28] is Rattus norvegicus. The data set can be described thus: Percent Edema variation in Carrageenan-induced paw edema test at a dose of 100 mg/kg perorally in rats after 180 min (p<0.01). Format: functional. The settings on record: route oral.
Data set [29] deals with Rattus norvegicus. The data set can be described thus: Percent Edema variation in Carrageenan-induced paw edema test at a dose of 100 mg/kg perorally in rats after 60 min. Format: functional. The settings on record: route oral.
Data set [30] deals with Rattus norvegicus. The data set can be described thus: Analgesic activity was determined using acetic acid writing test at a dose of 100 mg/kg perorally in rats. (p<0.01). The note with it: route oral. Format: functional.
In data set [31] the test system is Rattus norvegicus. The data set can be described thus: Number of writhings in Acetic acid Writhing test at a dose of 100 mg/kg perorally in rats(p<0.05). The settings on record: route oral. Type of data set: functional.
Data set [32] deals with Rattus norvegicus. The data set can be described thus: Reaction time in Hot plate test at a dose of 100 mg/kg perorally in rats after 60 min (p<0.05). Format: functional. The settings on record: route oral.

Regarding `COc1ccc2c(c1)c(CC(=O)O)c(C)n2C(=O)c1ccc(Cl)cc1` [INDOMETHACIN], the results for the Animals in data set [1] and in data set [2] were 100% and 80%, respectively. Also, the Edema variation in data set [3] is on record as -10.85%; in [4], -50.86%; in data set [5], -15.4%. In addition, the Reaction time is given as 27.1 s in data set [6], 28 s in data set [7] and 26.1 s in data set [8]. The inhibition in vivo at 5 mg/kg in data set [9] turned out to be 80%. The compound further registered a No. of writhings in [10] of 4. In [11], this compound displayed an LD50 of 15 mg/kg.

Turning to `COc1cccc([C@H]2SCC(=O)N2CCN2C(=O)CS[C@H]2c2cccc(OC)c2)c1`, the Animals worked out at 20% in [12], 0% in [13], 20% in [26] and 0% in data set [27]. Moreover, the Edema variation in data set [14] was -12.7%; in [15], 20.1%; in [16] it was -65.3%; in data set [17] it was -8.15%; in data set [18], 29.59%; in data set [19] it was -38.29%. Besides, the Reaction time amounted to 10.7 s in data set [20], 12.1 s in [21] and 12 s in [23]. Besides, the inhibition in vivo at 100 mg/kg in data set [22] amounted to 60%. In data set [24], this compound gave a No. of writhings of 8.1. The median lethal concentration (LC50) in data set [25] was over 1000 µg/mL. The 50% lethal dose (LD50) in [11] was over 1000 mg/kg.

Turning to `Cc1cccc([C@H]2SCC(=O)N2CCN2C(=O)CS[C@H]2c2cccc(C)c2)c1`, the Animals in [12] was 80%; in [13], 20%. The values for the Edema variation in data set [14], in data set [28] and in [29] were -13.05%, -55.81% and 25.6%, respectively. The Reaction time stood at 11 s in data set [20], 11.1 s in [23] and 18.4 s in data set [32]. In data set [30], this compound yielded an inhibition in vivo at 100 mg/kg of 64%. In [31], the No. of writhings came to 7.3. In data set [25], this compound gave an LC50 of over 1000 µg/mL. In [11], this compound had an LD50 of over 1000 mg/kg.

Broadly, the inhibition in vivo is the change of the read-out against control, counted positive when it falls. A higher inhibition in vivo goes with a response far below the control. The LD50 is the dose at which mortality reaches 50%. Lower therefore signals greater toxicity. As usually defined, the LC50 is the concentration that kills 50% of the test population. Higher therefore signals a less lethal substance.
